pIC50: −log10 of the molar value.

The target in test [1] is T1, FPTase (Homo sapiens, UniProt P49354+P49356). In words: in vitro FTase Inhibition Assay, H-Ras used as substrate for farnesylation. The conditions noted are these: Table I, read-out: IC50 H-Ras*. In kind it is biochemical. The method, then: (§1) Enzyme test procedure: FPTase inhibition in vitro assay was performed according to James, G. L., Brown, M. S., and Goldstein, J. L., Methods in Enzymology, 1995, 255, 38-46; and Garcia, M. A., et al., J. Biol. Chem., 1993, 268, 18415-18420.
(§2) Materials—Purified FPTase (Moomaw, J. F. and Casey, P. J., J. Biol. Chem., 1992, 267, 17438-17443), purified His6-Ras, inhibitor compounds at 10 mg/ml or 10 mM in 100% DMSO, ^3H-FPP (50,000 dpm/pmol) Amersham, TCA/SDS (6%/2%), TCA (6%), Glass fiber filters ([…]), vacuum manifold or 96 well filtration plates.
(§3) Methods—1. Dilute FPTase inhibitors from stock solutions to 2.5× in 2.5% DMSO, 10 mM DTT, 0.5% octyl-B-glucoside. 2. Solution #1 is added to FPTase reaction in a volume of […]. 3. Standard reaction mix, […], contains 50 mM Tris (7.5), 10 mM ZnCl2, 3 mM MgCl2, 20 mM KCl, 5 mM DTT, 0.2% octyl-B-glucoside, 1% DMSO, […] His6-Ras, 10 ng FPTase, and various concentrations of FPTase inhibitors. 4. Incubate for 30-90 min at 25° C. 5. Stop reactions with TCA/SDS (6%/2%), hold at 4° C. for 45-60 min. 6. Filter by manifold or 96 well plate, wash filter 3-5× with TCA (6%). 7. Add scintillant to filters, measure ^3H-FPP incorporation into Ras protein.
(§4) Analysis of Results—Percent inhibition by test compounds is determined by the following:
(§5) (cpm from precipitated Ras with test compounds)−(background cpm)×100=% inhibition.
(§6) (cpm from precipitated Ras without test compounds)−(background cpm)

In test [2] the target is T1, FPTase. In words: in vitro FTase Inhibition Assay, K-Ras used as substrate for farnesylation. It is filed as biochemical. To be noted: Table I. The protocol:
as §1, §2, §3, §4, §5, §6

For test [3], the system named is K-ras dependent human colon carcinoma (LoVo). In words: in vivo effects against K-ras dependent human colon carcinoma (LoVo). To be noted: 1 mg/kg per dose IP, days 5, 9 and 13; control 0.5% Methocel 0.4% Tween 80. The text has this:
[…] For the compound of example 114, when tested against a K-ras dependent human colon carcinoma (LoVo), the following results were obtained (Table III):

Regarding `COc1ccc(S(=O)(=O)C2(CCCC#Cc3cc(NC(=O)OC(C)C)ccc3C)SC(=O)NC2=O)cc1` (centres unmarked) [Example 179, (3-(5-[5-(4-Methoxybenzenesulfonyl)-2,4-dioxothiazolidin-5-yl]pent-1-ynyl}-4-methylphenyl)carbamic Acid Isopropyl Ester], the results for the pIC50 at FPTase [1] and against FPTase [2] were 7.49 to 8.70 and 7.15 to 8.30, respectively.
With `COc1ccc(S(=O)(=O)C2(CCCC#Cc3cc(NC(=O)OCC(C)(C)C)ccc3C)SC(=O)NC2=O)cc1` (centres unmarked) [Example 180, (3-(5-[5-(4-Methoxybenzenesulfonyl)-2,4-dixothiazolidin-5-yl]pent-1-ynyl}-4-methylphenyl)carbamic Acid Neopentyl Ester], the results for the pIC50 at FPTase [1] and at FPTase [2] were 7.49 to 8.70 and 7.05 to 8.15, respectively.
On to `CCCCOC(=O)Nc1ccc(C)c(C#CCCCC2(S(=O)(=O)c3ccc(OC)cc3)SC(=O)NC2=O)c1` (centres unmarked) [Example 181, (3-(5-[5-(4-Methoxybenzenesulfonyl)-2,4-dioxothiazolidin-5-yl]pent-1-ynyl}-4-methylphenyl)carbamic Acid Butyl Ester], for which the values for the pIC50 at FPTase [1] and against FPTase [2] were 7.49 to 8.00 and 6.89 to 7.00, respectively.
With `COc1ccc(S(=O)(=O)C2(CCCC#Cc3cc(NC(=O)OCC(C)C)ccc3C)SC(=O)NC2=O)cc1` (centres unmarked) [Example 182, (3-{5-(5-(4-Methoxybenzenesulfonyl)-2 ,4-dioxothiazolidin-5-yl]pent-1-ynyl}-4-methylphenyl)carbamic Acid Isobutyl], the pIC50 (commonly the IC50 on a negative log10 scale, so that one unit is a factor of ten) at FPTase [1] is 8.00 to 8.30; at FPTase [2] it was 7.25 to 7.49.
The like results for `COc1ccc(S(=O)(=O)C2(CCCC#Cc3cc(NC(=O)Nc4ccc(Cl)cc4)ccc3C)SC(=O)NC2=O)cc1` (centres unmarked) [Example 189, N-(4-Chlorophenyl)-N′-[3-(5-{5-[(4-methoxyphenyl)sulfonyl]-2,4-dioxo-1,3-thiazolidin-5-yl}-1-pentynyl)-4-methylphenyl]urea] were, in that order, 7.00 and 5.92.
Taken in the same sequence, the figures for `Cc1ccc(S(=O)(=O)C2(CCC/C=C\c3ccc(Cl)cc3)SC(=O)NC2=O)cc1` (centres unmarked) [Example 217, 5-[(4Z)-5-(4-Chloro-phenyl)pent-4-enyl]-5-(toluene-4-sulfonyl)-thiazolidine-2,4-dione] were 7.00 and 5.07.
Consider `COc1ccc(S(=O)(=O)C2(CCCC#Cc3cccc(N)c3)SC(=O)NC2=O)cc1` (centres unmarked) [Example 220, 5-[5-(3-Aminophenyl)pent-4-ynyl]-5-(4-methoxybenzenesulfonyl)-thiazolidine-2,4-dione], for which the negative-log IC50 (pIC50) is 7.05 on FPTase [1] and 5.52 at FPTase [2].
For the compound `COc1ccc(S(=O)(=O)C2(CCCC#Cc3cc(NC(=O)OCc4ccccc4)ccc3C)SC(=O)N(C(=O)OCc3ccccc3)C2=O)cc1` (centres unmarked) [Example 226, Benzyl 5-[5-(5-{[(benzyloxy)carbonyl]-amino}-2-methylphenyl)pent-4-ynyl]-5-[(4-methoxyphenyl)sulfonyl]-2,4-dioxo-1,3-thiazolidine-3-carboxylate], the values for the pIC50 at FPTase [1] and on FPTase [2] were 7.30 to 7.52 and 5.49 to 7.00, respectively.
With `COc1ccc(S(=O)(=O)C2(CCCC#Cc3cc(NC(=O)OCc4ccc([N+](=O)[O-])cc4)ccc3C)SC(=O)N(C(=O)OCc3ccc([N+](=O)[O-])cc3)C2=O)cc1` (centres unmarked) [Example 227, 4-Nitrobenzyl 5-[(4-methoxyphenyl)sulfonyl]-5-{5-[2-methyl-5-({[(4-nitrobenzyl)oxy]carbonyl}amino)phenyl]pent-4-ynyl}-2,4-dioxo-1,3-thiazolidine-3-carboxylate], the pIC50 is 8.00 to 8.15 on FPTase [1] and 6.40 to 6.68 against FPTase [2].
For the compound `COC(=O)Nc1ccc(C)c(C#CCCCC2(S(=O)(=O)c3ccc(OC)cc3)SC(=O)N(C(=O)OC)C2=O)c1` (centres unmarked) [Example 228, Methyl 5-(5-{5-[(methoxycarbonyl)amino]-2-methylphenyl}pent-4-ynyl)-5-[(4-methoxyphenyl)sulfonyl]-2,4-dioxo-1,3-thiazolidine-3-carboxylate], the pIC50 on FPTase [1] is 7.15 to 8.40; at FPTase [2], 6.00 to 6.64.
Turning to `COc1ccc(S(=O)(=O)C2(CCCC#Cc3cc(NC(=O)OC(C)C)ccc3C)SC(=O)N(C(=O)OC(C)C)C2=O)cc1` (centres unmarked) [Example 229, Isopropyl 5-(5-{5-[(isopropoxycarbonyl)-amino]-2-methylphenyl}pent-4-ynyl)-5-[(4-methoxyphenyl)sulfonyl]-2,4-dioxo-1,3-thiazolidine-3-carboxylate], the pIC50 was 7.70 to 8.22 on FPTase [1] and 6.15 to 7.00 on FPTase [2].
As to `COc1ccc(S(=O)(=O)C2(CCCC#Cc3cc(NC(=O)OCC(C)(C)C)ccc3C)SC(=O)N(C(=O)OCC(C)(C)C)C2=O)cc1` (centres unmarked) [Example 230, Neopentyl 5-[(4-methoxyphenyl)sulfonyl]-5-[5-(2-methyl-5-{[(neopentyloxy)carbonyl]-amino}phenyl)pent-4-ynyl]-2,4-dioxo-1,3-thiazolidine-3-carboxylate], the pIC50 on FPTase [1] was 8.46 to 8.52; at FPTase [2], 6.30 to 7.70.
As to `CCCCOC(=O)Nc1ccc(C)c(C#CCCCC2(S(=O)(=O)c3ccc(OC)cc3)SC(=O)N(C(=O)OCCCC)C2=O)c1` (centres unmarked) [Example 231, Butyl 5-(5-{5-[(butoxycarbonyl)amino]-2-methylphenyl}pent-4-ynyl)-5-[(4-methoxy-phenyl)sulfonyl]-2,4-dioxo-1,3-thiazolidine-3-carboxylate], the pIC50 on FPTase [1] was 7.68 to 8.00; against FPTase [2] it was 6.00 to 7.00.
Turning to `COc1ccc(S(=O)(=O)C2(CCCC#Cc3cc(NC(=O)OCC(C)C)ccc3C)SC(=O)N(C(=O)OCC(C)C)C2=O)cc1` (centres unmarked) [Example 232, Isobutyl 5-(5-{5-[(isobutoxycarbonyl)-amino]-2-methylphenyl}pent-4-ynyl)-5-[(4-methoxyphenyl)sulfonyl]-2,4-dioxo-1,3-thiazolidine-3-carboxylate], the pIC50 at FPTase [1] is 8.00 to 8.30; against FPTase [2], 6.19 to 7.40.
Take `CC[C@]1(O)C[C@H]2CN(CCc3c([nH]c4ccccc34)[C@@](C(=O)OC)(c3cc4c(cc3OC)N(C=O)[C@H]3[C@@](O)(C(=O)OC)[C@H](OC(C)=O)[C@]5(CC)C=CCN6CC[C@]43[C@@H]65)C2)C1` [Vincristine, reference compound]: in test [3], the “% T/C, Day8” value is 16%; the “% T/C, Day 15” value is listed as 8%; the “% T/C, Day 22” value came to 14%; the “% T/C, Day 29” value stood at 19%. In test [3], the “% T/C, Day 36” value is given as 15%; the “Mean Tumor Weight, Day8” value came to 14 mg; the “Mean Tumor Weight, Day 15” value was found to be 24 mg; the “Mean Tumor Weight, Day 22” value was determined as 84 mg. Moreover, in test [3], the “Mean Tumor Weight, Day 29” value amounted to 139 mg and the “Mean Tumor Weight, Day 36” value stood at 194 mg.

(Values after patent US6605628B1, “Method of using 5-(arysulfonyl)-, 5-(arylsulfanyl)-and 5-(arylsulfanyl)thiazolidine-2,4-diones for inhibition of farnesyl-protein transferase” (Wyeth Holdings Corporation, priority 2001, dated 2003).)
